Assay results published in ChEMBL document CHEMBL5465560, “Selectivity Literature for EUbOPEN Chemogenomic Library” (2024).
Values belong to the compound of their own block, whether it stands above or below them.

Columns and labels:
[1] = biological target: T1, Serine/threonine-protein kinase Sgk3 (Homo sapiens) (UniProt Q96BR1); experiment: Selectivity interaction (Upstate Kinase Profiler service (Millipore)) EUB0000056c SGK3; conditions: at 1 µM
T1 sequence (whole entry): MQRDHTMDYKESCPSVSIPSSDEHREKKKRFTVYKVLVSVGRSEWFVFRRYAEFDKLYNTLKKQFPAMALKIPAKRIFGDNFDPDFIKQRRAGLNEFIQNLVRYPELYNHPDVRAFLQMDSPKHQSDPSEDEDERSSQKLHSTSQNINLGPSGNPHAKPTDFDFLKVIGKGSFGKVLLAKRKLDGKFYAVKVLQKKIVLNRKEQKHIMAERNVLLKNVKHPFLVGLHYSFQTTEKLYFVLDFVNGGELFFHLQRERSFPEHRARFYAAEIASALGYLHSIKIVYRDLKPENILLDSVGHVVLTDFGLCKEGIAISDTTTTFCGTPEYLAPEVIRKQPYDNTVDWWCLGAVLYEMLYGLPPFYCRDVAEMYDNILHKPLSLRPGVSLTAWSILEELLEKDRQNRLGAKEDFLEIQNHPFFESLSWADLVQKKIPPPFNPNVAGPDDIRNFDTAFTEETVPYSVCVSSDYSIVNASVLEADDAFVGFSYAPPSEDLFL

[2] = biological target: Mitogen-activated protein kinase kinase kinase 4 (Homo sapiens) (UniProt Q9Y6R4); conditions: at 10 µM
Sequence of Mitogen-activated protein kinase kinase kinase 4 (Homo sapiens) (Q9Y6R4 whole entry): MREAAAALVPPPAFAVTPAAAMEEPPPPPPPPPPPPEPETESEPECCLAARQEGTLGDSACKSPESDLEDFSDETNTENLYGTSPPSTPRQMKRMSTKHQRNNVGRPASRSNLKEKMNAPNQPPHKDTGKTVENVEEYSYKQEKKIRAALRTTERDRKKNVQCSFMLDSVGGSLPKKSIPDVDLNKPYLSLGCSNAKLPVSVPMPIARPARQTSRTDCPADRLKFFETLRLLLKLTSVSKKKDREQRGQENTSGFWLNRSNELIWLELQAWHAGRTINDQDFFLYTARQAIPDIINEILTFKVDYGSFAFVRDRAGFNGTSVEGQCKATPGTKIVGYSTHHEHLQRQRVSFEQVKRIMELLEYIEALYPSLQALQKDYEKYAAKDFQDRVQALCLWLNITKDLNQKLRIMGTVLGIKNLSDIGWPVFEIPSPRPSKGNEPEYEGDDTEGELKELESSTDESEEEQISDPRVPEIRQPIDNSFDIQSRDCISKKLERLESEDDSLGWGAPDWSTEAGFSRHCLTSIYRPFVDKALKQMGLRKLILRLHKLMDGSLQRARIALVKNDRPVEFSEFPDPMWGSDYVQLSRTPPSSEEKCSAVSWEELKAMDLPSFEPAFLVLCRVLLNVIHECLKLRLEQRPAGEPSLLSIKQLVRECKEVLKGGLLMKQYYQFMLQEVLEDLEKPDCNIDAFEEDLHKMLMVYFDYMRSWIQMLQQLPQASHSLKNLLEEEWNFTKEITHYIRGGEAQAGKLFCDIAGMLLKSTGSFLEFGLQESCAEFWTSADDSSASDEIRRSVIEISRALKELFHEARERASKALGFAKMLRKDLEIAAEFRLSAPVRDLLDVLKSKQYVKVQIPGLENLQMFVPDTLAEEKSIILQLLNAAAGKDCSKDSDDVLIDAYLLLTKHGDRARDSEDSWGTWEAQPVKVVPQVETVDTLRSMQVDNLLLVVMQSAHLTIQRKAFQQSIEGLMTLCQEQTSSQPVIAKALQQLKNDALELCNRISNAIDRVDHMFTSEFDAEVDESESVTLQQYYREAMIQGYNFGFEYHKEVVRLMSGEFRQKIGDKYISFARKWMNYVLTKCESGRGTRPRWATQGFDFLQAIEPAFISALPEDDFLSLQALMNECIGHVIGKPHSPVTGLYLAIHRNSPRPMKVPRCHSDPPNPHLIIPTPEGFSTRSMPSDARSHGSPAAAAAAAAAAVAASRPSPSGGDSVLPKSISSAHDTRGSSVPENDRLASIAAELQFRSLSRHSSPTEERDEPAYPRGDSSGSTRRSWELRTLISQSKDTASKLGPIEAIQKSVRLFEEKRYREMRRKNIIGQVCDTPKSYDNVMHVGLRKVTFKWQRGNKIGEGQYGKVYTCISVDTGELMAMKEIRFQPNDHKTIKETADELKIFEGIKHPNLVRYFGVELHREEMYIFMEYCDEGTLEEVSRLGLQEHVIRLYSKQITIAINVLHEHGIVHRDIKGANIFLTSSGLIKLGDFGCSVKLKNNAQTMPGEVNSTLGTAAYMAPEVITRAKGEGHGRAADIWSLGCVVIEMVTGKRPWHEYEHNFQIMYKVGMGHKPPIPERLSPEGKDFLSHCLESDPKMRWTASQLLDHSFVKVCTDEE

[3] = biological target: T2, Serine/threonine-protein kinase 3 (Homo sapiens) (UniProt Q13188); experiment: Selectivity interaction (ActivX KiNativ screen (kinase selectivity in THP-1 cell lysates)) EUB0000639a STK3; assay type: subcellular; conditions: lysate, at 5 µM
T2 sequence (whole entry): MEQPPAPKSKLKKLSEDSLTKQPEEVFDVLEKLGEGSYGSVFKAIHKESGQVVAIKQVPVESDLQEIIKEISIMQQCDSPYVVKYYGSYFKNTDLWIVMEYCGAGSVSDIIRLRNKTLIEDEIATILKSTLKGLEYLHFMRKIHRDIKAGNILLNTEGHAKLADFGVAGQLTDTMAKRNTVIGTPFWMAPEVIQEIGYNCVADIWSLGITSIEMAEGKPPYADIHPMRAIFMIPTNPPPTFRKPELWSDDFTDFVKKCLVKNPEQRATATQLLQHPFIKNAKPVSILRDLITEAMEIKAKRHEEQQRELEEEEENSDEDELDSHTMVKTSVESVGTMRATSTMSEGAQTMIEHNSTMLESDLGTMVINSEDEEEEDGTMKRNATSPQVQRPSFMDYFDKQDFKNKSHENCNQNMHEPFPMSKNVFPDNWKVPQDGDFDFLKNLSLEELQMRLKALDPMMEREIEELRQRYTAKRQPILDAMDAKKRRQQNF

[4] = biological target: Non-receptor tyrosine-protein kinase TYK2 (Homo sapiens, UniProt P29597); experiment: Selectivity interaction (ProQinase) EUB0000171b TYK2
Sequence of Non-receptor tyrosine-protein kinase TYK2 (P29597 whole entry): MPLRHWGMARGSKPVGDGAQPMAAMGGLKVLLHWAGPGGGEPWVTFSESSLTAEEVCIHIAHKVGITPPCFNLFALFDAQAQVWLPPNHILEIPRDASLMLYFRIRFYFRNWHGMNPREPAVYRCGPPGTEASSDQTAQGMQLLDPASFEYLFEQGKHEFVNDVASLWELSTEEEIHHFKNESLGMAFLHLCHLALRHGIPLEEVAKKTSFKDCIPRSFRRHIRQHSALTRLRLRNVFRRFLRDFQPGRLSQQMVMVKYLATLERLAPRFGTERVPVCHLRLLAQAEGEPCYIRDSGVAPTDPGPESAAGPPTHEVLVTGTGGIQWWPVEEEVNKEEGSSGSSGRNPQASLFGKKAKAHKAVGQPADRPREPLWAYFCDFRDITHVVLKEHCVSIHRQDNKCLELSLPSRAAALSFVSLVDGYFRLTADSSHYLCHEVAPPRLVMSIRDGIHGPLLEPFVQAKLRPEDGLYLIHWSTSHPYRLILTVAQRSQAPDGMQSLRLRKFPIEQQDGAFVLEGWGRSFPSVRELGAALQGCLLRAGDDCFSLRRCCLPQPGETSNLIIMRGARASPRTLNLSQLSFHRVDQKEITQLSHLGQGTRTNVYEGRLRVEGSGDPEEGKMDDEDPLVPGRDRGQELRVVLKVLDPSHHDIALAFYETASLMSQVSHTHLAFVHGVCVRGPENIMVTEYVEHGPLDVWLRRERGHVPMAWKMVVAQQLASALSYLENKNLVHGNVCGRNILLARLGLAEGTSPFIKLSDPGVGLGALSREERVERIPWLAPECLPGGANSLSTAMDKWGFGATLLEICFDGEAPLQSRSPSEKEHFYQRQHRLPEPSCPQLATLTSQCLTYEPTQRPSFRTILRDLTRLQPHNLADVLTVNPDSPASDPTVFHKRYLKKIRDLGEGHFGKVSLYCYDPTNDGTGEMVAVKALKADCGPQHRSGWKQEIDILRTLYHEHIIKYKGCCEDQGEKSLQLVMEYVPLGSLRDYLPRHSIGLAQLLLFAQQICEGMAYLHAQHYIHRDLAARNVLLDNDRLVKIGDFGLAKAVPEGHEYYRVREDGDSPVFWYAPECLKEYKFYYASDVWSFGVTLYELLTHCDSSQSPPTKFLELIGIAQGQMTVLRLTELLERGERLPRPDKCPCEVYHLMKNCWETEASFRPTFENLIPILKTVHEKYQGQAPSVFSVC

[5] = biological target: MAO-A (MAOA) (Homo sapiens, UniProt P21397); experiment: Selectivity interaction (Safety Panel 44tm (Eurofins)) EUB0000162b MAOA; conditions: at 10 µM, read-out: % of control
Sequence of MAO-A (MAOA) (P21397 whole entry): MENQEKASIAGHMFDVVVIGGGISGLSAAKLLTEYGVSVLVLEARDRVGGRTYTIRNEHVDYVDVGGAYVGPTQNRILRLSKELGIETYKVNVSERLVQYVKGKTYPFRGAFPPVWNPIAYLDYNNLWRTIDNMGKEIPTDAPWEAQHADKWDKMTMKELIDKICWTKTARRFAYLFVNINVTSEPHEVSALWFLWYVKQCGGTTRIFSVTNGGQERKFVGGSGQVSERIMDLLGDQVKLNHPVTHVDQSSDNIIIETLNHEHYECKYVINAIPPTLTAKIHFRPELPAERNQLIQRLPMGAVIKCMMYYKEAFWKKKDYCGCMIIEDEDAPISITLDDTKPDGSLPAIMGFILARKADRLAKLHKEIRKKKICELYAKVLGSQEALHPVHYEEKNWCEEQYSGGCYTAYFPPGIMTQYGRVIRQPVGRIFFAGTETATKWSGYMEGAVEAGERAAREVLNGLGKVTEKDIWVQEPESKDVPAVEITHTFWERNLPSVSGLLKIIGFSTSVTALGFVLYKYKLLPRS

[6] = biological target: T3, Mitogen-activated protein kinase kinase kinase 6 (Homo sapiens) (UniProt O95382); experiment: Selectivity interaction (KinomeScan (DiscoverX)) EUB0000618a MAP3K6; conditions: at 10 µM
T3 sequence (whole entry): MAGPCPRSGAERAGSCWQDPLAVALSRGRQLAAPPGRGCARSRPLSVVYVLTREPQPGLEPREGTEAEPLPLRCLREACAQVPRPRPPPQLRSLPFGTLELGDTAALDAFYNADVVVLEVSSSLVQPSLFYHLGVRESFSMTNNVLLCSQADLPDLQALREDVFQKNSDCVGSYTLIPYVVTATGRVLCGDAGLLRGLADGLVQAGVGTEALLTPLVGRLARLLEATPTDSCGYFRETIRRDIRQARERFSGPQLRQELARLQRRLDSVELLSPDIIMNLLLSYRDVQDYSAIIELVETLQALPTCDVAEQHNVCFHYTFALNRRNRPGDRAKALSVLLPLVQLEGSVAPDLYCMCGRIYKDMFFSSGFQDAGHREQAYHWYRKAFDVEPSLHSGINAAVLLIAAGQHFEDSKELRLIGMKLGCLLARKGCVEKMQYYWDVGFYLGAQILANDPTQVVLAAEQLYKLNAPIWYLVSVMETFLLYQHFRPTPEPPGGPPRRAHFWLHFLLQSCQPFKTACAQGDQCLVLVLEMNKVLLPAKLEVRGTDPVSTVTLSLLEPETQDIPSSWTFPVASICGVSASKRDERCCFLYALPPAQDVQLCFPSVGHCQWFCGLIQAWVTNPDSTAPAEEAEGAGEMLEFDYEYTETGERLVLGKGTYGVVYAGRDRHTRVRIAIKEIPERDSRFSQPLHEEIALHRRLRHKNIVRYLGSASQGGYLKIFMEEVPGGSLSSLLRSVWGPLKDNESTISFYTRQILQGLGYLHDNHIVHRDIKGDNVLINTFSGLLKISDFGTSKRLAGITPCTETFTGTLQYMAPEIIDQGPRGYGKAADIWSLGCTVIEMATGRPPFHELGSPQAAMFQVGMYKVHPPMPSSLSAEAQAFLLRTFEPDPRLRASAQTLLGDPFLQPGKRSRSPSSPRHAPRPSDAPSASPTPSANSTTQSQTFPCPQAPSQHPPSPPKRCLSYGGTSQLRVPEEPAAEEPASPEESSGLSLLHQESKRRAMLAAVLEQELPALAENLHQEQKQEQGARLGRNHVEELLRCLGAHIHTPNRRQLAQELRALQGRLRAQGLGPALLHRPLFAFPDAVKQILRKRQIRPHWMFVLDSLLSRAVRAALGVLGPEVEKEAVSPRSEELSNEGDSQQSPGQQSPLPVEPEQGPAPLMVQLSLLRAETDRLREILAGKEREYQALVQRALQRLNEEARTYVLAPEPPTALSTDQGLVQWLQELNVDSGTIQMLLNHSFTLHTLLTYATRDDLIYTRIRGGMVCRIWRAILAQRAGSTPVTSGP

[7] = biological target: Cyclin-dependent kinase 2 (Homo sapiens, UniProt P24941); experiment: Selectivity interaction (ActivX KiNativ screen (ex vivo kinase selectivity in human PBMCs)) EUB0001619a CDK2; assay type: cell-based; conditions: PBMC, at 1 µM

% of control [2]: 100%
Structure (SMILES): CCN(CC)CCCCNc1ncc2cc(-c3cc(OC)cc(OC)c3)c(NC(=O)NC(C)(C)C)nc2n1

% of inhibition [3]: -19.6%
Structure (SMILES): CC[C@@H]1[C@H](F)C(=O)N[C@@H]1COc1nccc2cc(C(N)=O)c(OC)cc12 [ZIMLOVISERTIB]

Further lines, the compound ahead of its results:

Structure (SMILES): Cc1ccc(-c2ccc3c(ccc4sc5c(c43)NC[C@@H](C)NC5=O)n2)cn1
% of inhibition [1]: -1%

Structure (SMILES): C=CC(=O)Nc1cccc(C(=O)Nc2ccc(Nc3cc(-c4[nH]c(SC)nc4C)ccn3)cc2)c1
% of control ([4]; at 1 µM): 77% | % of control ([4]; at 5 µM): 46%

Structure (SMILES): CN(C)C(=O)Cn1cc(-c2ccc(-c3cncc4ccccc34)cc2)cn1
activity [5]: 30%

Structure (SMILES): O[C@H]1CC[C@H](Nc2ncc3nc(Nc4c(F)cc(F)cc4F)n([C@H]4CCOC4)c3n2)CC1
% of control [6]: 88%

Structure (SMILES): N#Cc1cccc(-c2c[nH]c3ncnc(N4CCOCC4)c23)c1
% of inhibition [7]: 8%
